Assay results: US9296725B2, “Heterocyclyl pyrimidine analogues as TYK2 inhibitors” (Cellzome Limited, priority 2012, dated 2016)
Like-named read-outs stand apart in the source and are kept apart here.

Assays:
TYK2 = molecular target: T1, TYK2 (Homo sapiens, UniProt P29597); experiment: Kinobeads assay, TYK2 (competition binding in mixed Molt4/Ramos cell lysate, dot blot detection)
T1 construct: endogenous in cells; host or cells: Molt4 (ATCC CRL-1582) and Ramos (ATCC CRL-1596), mixed lysate 1:2
In short: (§1)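 JAK2 and TYK2 retained on Kinobeads (immobilized aminopyrido-pyrimidine ligand) from 1:2 Molt4:Ramos lysate (10 mg/mL) were quantified by antibody dot blot (Odyssey infrared) after 3 h cold incubation with compound. Nine-step 1:3 dilution series; IC50 calculated from curves.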

JAK2 = molecular target: T2, JAK2 (Homo sapiens, UniProt O60674); experiment: Kinobeads assay, JAK2 (competition binding in mixed Molt4/Ramos cell lysate, dot blot detection); details: read-out: JAK2 Band (Kinobeads assay potency, IC50)
T2 construct: endogenous in cells; host or cells: Molt4 (ATCC CRL-1582) and Ramos (ATCC CRL-1596), mixed lysate 1:2
In short: as §1

[1] = Kinobeads assay, Molt4/Ramos lysate, read-out: TYK2 Band (Kinobeads assay potency, IC50)

T2 sequence (O60674 whole entry): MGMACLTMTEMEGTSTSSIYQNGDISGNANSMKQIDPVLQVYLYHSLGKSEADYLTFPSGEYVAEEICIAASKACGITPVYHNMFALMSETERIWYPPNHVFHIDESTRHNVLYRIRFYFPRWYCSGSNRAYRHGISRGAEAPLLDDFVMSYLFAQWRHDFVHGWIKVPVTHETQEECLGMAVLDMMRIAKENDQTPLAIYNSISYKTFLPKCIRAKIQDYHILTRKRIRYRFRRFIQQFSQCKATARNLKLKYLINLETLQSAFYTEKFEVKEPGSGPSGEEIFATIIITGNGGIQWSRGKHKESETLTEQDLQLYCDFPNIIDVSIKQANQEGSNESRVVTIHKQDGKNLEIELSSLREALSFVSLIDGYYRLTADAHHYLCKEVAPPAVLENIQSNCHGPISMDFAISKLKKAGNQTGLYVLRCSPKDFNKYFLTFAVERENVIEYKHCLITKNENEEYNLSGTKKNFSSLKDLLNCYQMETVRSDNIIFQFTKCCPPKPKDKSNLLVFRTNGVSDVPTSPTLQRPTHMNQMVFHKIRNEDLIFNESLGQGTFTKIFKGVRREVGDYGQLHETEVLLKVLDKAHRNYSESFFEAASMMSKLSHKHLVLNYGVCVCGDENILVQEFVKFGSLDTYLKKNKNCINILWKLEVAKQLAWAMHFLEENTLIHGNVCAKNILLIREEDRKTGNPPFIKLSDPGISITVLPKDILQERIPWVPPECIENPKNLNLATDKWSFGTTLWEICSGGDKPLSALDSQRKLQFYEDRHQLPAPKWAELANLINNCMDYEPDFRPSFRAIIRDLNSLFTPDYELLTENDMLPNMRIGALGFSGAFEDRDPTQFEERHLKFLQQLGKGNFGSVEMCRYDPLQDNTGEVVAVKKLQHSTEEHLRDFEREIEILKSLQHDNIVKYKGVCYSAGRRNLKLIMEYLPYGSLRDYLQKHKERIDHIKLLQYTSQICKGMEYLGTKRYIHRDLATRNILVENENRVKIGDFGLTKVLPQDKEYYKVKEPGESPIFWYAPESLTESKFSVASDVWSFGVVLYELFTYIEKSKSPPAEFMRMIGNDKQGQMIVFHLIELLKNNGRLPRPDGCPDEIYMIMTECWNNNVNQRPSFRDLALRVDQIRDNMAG
T1 sequence (P29597 whole entry): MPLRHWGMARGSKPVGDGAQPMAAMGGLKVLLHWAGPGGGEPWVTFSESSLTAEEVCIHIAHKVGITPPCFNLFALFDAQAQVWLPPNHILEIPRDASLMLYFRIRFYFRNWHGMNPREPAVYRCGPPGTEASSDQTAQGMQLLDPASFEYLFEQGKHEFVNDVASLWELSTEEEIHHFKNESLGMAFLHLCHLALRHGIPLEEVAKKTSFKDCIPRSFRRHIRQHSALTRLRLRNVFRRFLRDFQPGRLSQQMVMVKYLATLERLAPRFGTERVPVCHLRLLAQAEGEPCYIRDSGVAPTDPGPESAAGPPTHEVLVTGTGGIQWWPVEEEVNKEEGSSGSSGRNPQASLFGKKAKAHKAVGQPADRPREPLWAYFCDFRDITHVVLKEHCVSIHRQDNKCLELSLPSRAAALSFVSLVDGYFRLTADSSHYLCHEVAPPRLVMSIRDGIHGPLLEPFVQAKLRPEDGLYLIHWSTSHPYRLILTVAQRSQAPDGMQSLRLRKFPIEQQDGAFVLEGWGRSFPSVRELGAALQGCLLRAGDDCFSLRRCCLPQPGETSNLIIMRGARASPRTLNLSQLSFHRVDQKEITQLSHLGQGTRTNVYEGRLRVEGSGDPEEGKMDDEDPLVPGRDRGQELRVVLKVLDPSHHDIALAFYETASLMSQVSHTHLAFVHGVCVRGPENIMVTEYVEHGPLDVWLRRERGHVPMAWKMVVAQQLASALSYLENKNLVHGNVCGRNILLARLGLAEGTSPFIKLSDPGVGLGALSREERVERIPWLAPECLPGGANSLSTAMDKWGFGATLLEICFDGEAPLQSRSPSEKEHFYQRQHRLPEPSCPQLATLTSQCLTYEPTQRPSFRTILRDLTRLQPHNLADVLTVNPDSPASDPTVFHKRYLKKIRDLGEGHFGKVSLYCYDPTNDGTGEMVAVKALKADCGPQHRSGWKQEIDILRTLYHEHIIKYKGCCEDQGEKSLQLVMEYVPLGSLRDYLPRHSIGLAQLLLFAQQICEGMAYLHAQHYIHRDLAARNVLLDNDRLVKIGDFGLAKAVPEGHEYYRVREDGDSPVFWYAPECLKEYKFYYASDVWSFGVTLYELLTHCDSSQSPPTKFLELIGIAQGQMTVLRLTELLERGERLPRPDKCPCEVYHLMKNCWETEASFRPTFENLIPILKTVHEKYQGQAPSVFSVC

SMILES | IC50 (TYK2; [1]) | IC50 (JAK2) | IC50 (TYK2; read-out: TYK2 IC50)
COc1ccc(F)c(CNc2nc(Nc3cnn(CC(=O)OC(C)C)c3)ncc2F)c1F [Example I-47] | 10 to 100 nM | > 10000 nM | –
OCCn1cc(Nc2ncc(Cl)c(NCc3cc(OC(F)F)ccc3F)n2)cn1 [Example I-413] | 10 to 100 nM | 100 to 1000 nM | –
O=C(Cn1cc(Nc2nccc(NCc3c(F)cc(F)cc3F)n2)cn1)NC1CCOC1 (stereo not shown) [Example I-95] | 10 to 100 nM | 1000 to 10000 nM | –
OCCn1cc(Nc2ncc(Cl)c(NCc3ccc(O)cc3)n2)cn1 [Example I-219] | 10 to 100 nM | 100 to 1000 nM | –
CN(C)C(=O)Cn1cc(Nc2ncc(F)c(NCc3c(F)ccc(F)c3F)n2)cn1 [Example I-411] | 10 to 100 nM | 1000 to 10000 nM | –
COc1ccc(Cl)c(CNc2nc(Nc3cnn(CC(=O)NC(C)C)c3)ncc2F)c1F [Example I-84] | ≤ 10 nM | 100 to 1000 nM | –
O=C(Cn1cc(Nc2nccc(NCc3c(F)cc(F)cc3F)n2)cn1)N[C@H]1CCOC1 [Example I-138] | 10 to 100 nM | 1000 to 10000 nM | –
N#CC1CN(C(=O)Cn2cc(Nc3ncc(Cl)c(NCc4ccccc4)n3)cn2)C1 [Example I-274] | 10 to 100 nM | 1000 to 10000 nM | –
CC1(C)CN(C(=O)Cn2cc(Nc3ncc(F)c(NCc4c(F)cc(F)cc4F)n3)cn2)CCO1 [Example I-39] | 10 to 100 nM | 1000 to 10000 nM | –
NS(=O)(=O)c1cc(F)c(CNc2nc(Nc3cnn(CC(=O)N4CCCCC4)c3)ncc2F)c(F)c1 [Example I-31] | 10 to 100 nM | 1000 to 10000 nM | –
CN(C)C(=O)Cn1cc(Nc2ncc(Cl)c(NCc3cc(OC(F)F)ccc3F)n2)cn1 [Example I-414] | 10 to 100 nM | 1000 to 10000 nM | –
Fc1cc(F)c(CNc2ccnc(Nc3cnn(CCN4CCOCC4)c3)n2)c(F)c1 [Example I-112] | 10 to 100 nM | 1000 to 10000 nM | < 100 nM
OCCn1cc(Nc2ncc(Cl)c(NCc3c(F)cccc3-c3cn[nH]c3)n2)cn1 [Example I-265] | 100 to 1000 nM | 1000 to 10000 nM | –
OCCn1cc(Nc2ncc(Cl)c(NCc3cc(Br)ccc3F)n2)cn1 [Example I-164] | 10 to 100 nM | 100 to 1000 nM | –
CC(C)(CF)NC(=O)Cn1cc(Nc2nccc(NCc3c(F)cc(F)cc3F)n2)cn1 [Example I-430] | 10 to 100 nM | 1000 to 10000 nM | –
N#CC1CCCN1C(=O)Cn1cc(Nc2ncc(Cl)c(NCc3ccccc3)n2)cn1 (stereo not shown) [Example I-237] | 10 to 100 nM | 100 to 1000 nM | –
C[C@H](CO)NC(=O)Cn1cc(Nc2nccc(NCc3c(Cl)ccc(Cl)c3F)n2)cn1 [Example I-131] | 10 to 100 nM | 100 to 1000 nM | –
COc1ccc(Cl)c(CNc2ccnc(Nc3cnn(CC(=O)N[C@H](C)CO)c3)n2)c1F [Example I-123] | ≤ 10 nM | 100 to 1000 nM | –
O=C(Cn1cc(Nc2ncc(Cl)c(NCc3ccccn3)n2)cn1)N1CCOCC1 [Example I-338] | 100 to 1000 nM | 1000 to 10000 nM | –
CNC(=O)Cn1cc(Nc2ncc(C)c(NCc3cc(F)cc(F)c3)n2)cn1 [Example I-354] | 100 to 1000 nM | 100 to 1000 nM | –
[2H]C([2H])(O)C([2H])([2H])n1cc(Nc2ncc(Cl)c(NCc3cccc(F)c3)n2)cn1 [Example I-232] | 100 to 1000 nM | 1000 to 10000 nM | –
O=C(Cn1cc(Nc2ncc(Cl)c(NCc3cc(F)cc(F)c3)n2)cn1)N1CCOCC1 [Example I-162] | 10 to 100 nM | 10 to 100 nM | –

SMILES | IC50 (TYK2; [1]) | IC50 (JAK2) | IC50 (TYK2; read-out: TYK2 IC50)
Cn1cc(Nc2nccc(NCc3c(F)cccc3Cl)n2)cn1 [Example I-55] | 10 to 100 nM | 1000 to 10000 nM | –
C[C@@H](CO)NC(=O)Cn1cc(Nc2nccc(NCc3c(F)ccc(C#N)c3F)n2)cn1 [Example I-153] | ≤ 10 nM | 1000 to 10000 nM | –
N#Cc1c(F)cccc1CNc1nc(Nc2cnn(CC(N)=O)c2)ncc1Cl [Example I-286] | 100 to 1000 nM | 100 to 1000 nM | –
Cc1cnc(Nc2cnn(CC(=O)N3CCOCC3)c2)nc1NCc1c(F)cc(F)cc1F [Example I-21] | ≤ 10 nM | 1000 to 10000 nM | –
CS(=O)(=O)c1ccccc1CNc1nc(Nc2cnn(CC(N)=O)c2)ncc1F [Example I-436] | 100 to 1000 nM | 1000 to 10000 nM | –
CS(=O)(=O)NCc1cccc(CNc2nc(Nc3cnn(CC(N)=O)c3)ncc2Cl)c1 [Example I-397] | 100 to 1000 nM | 1000 to 10000 nM | –
COc1ccc(F)c(CNc2ccnc(Nc3cnn(CC(=O)N[C@@H](C)CO)c3)n2)c1F [Example I-133] | ≤ 10 nM | 1000 to 10000 nM | –
COc1ccc(F)c(CNc2nc(Nc3cnn(CC(=O)N(C)C(C)C)c3)ncc2F)c1F [Example I-57] | ≤ 10 nM | 1000 to 10000 nM | –
Cn1cc(Nc2ncc(Cl)c(NCc3ccccc3F)n2)cn1 [Example I-173] | 100 to 1000 nM | 100 to 1000 nM | –
CNC(=O)Cn1cc(Nc2ncc(Cl)c(NCc3cc(F)ccc3S(C)(=O)=O)n2)cn1 [Example I-438] | 10 to 100 nM | 100 to 1000 nM | –
CC(C)NC(=O)Cn1cc(Nc2nccc(NCc3c(F)ccc(C#N)c3F)n2)cn1 [Example I-134] | ≤ 10 nM | 1000 to 10000 nM | –
N#C[C@@H]1CCN(C(=O)Cn2cc(Nc3ncc(Cl)c(NCc4ccccc4)n3)cn2)C1 [Example I-271] | 10 to 100 nM | 100 to 1000 nM | –
O=C(Cn1cc(Nc2ncc(Cl)c(NCc3ccccc3)n2)cn1)N1CCC2(CC1)COC2 [Example I-239] | 100 to 1000 nM | 1000 to 10000 nM | –
Cn1cc(Nc2ncc(Cl)c(NCc3ncccc3F)n2)cn1 [Example I-260] | 100 to 1000 nM | 1000 to 10000 nM | –
COc1ccc(Cl)c(CNc2nc(Nc3cnn(CC(=O)N4CCOCC4)c3)ncc2F)c1F [Example I-81] | ≤ 10 nM | 100 to 1000 nM | –
CC(NC(=O)Cn1cc(Nc2nccc(NCc3c(F)cc(F)cc3F)n2)cn1)C1CCOC1 (stereo not shown) [Example I-105] | 10 to 100 nM | > 10000 nM | –
COc1ccc(Cl)c(CNc2ccnc(Nc3cnn(CC(=O)N[C@@H](C)CO)c3)n2)c1F [Example I-122] | ≤ 10 nM | 100 to 1000 nM | –
CS(=O)(=O)c1ccccc1CNc1nc(Nc2cnn(CC(F)F)c2)ncc1F [Example I-477] | 1000 to 10000 nM | 1000 to 10000 nM | –
COc1ccccc1CNc1nc(Nc2cnn(CC(N)=O)c2)ncc1Cl [Example I-321] | 100 to 1000 nM | 1000 to 10000 nM | –
O=C(Cn1cc(Nc2nccc(NCc3c(F)cc(F)cc3F)n2)cn1)NCCO [Example I-89] | 10 to 100 nM | 1000 to 10000 nM | –
Cc1noc(Cn2cc(Nc3ncc(Cl)c(NCc4c(F)cccc4F)n3)cn2)n1 [Example I-483] | 100 to 1000 nM | 1000 to 10000 nM | –
Cn1cc(Nc2ncc(Cl)c(NCc3c(F)cccc3C(F)(F)F)n2)cn1 [Example I-118] | 10 to 100 nM | 1000 to 10000 nM | –

SMILES | IC50 (TYK2; [1]) | IC50 (JAK2) | IC50 (TYK2; read-out: TYK2 IC50)
Cc1cnc(Nc2cnn(CC(F)(F)F)c2)nc1NCc1cc(F)cc(F)c1F [Example I-351] | 1000 to 10000 nM | 1000 to 10000 nM | –
CNC(=O)Cn1cc(Nc2ncc(Cl)c(NCc3c(F)cccc3F)n2)cn1 [Example I-229] | 10 to 100 nM | 1000 to 10000 nM | –
OCCn1cc(Nc2ncc(F)c(NCc3c(F)cccc3F)n2)cn1 [Example I-204] | ≤ 10 nM | 1000 to 10000 nM | –
COc1ccc(F)c(CNc2nc(Nc3cnn(CC(N)=O)c3)ncc2Cl)c1F [Example I-375] | 10 to 100 nM | 100 to 1000 nM | –
O=C(Cn1cc(Nc2ncc(F)c(NCc3cccc(OC(F)F)c3)n2)cn1)NC1CC1 [Example I-46] | 10 to 100 nM | > 10000 nM | –
O=C(Cn1cc(Nc2nccc(NCc3c(F)cccc3Cl)n2)cn1)N1CCOCC1 [Example I-129] | ≤ 10 nM | > 10000 nM | –
O=C(Cn1cc(Nc2ncc(F)c(NCc3c(F)cc(F)cc3F)n2)cn1)N1CCOCC1 [Example I-26] | ≤ 10 nM | 1000 to 10000 nM | –
OCCn1cc(Nc2ncc(Cl)c(NCc3cccnc3)n2)cn1 [Example I-255] | 100 to 1000 nM | 1000 to 10000 nM | –
CS(=O)(=O)c1ccc(F)cc1CNc1nc(Nc2cnn(CC(N)=O)c2)ncc1F [Example I-489] | 10 to 100 nM | 100 to 1000 nM | –
COc1ccccc1CNc1nc(Nc2cnn(CCO)c2)ncc1Cl [Example I-185] | 100 to 1000 nM | 1000 to 10000 nM | –
CC(C)Oc1cccc(CNc2nc(Nc3cnn(CCO)c3)ncc2Cl)c1 [Example I-334] | 100 to 1000 nM | 1000 to 10000 nM | –
NS(=O)(=O)c1ccc(CNc2nc(Nc3cnn(CCO)c3)ncc2F)cc1 [Example I-9] | 10 to 100 nM | > 10000 nM | –
COc1ccc(Cl)c(CNc2ccnc(Nc3cnn(C)c3)n2)c1F [Example I-61] | 10 to 100 nM | 100 to 1000 nM | –
NC(=O)Cn1cc(Nc2ncc(F)c(NCc3c(F)cc(F)cc3F)n2)cn1 [Example I-157] | 10 to 100 nM | 1000 to 10000 nM | –
O=C(O)Cn1cc(Nc2ncc(Cl)c(NCc3ccccc3)n2)cn1 [Example I-222] | 100 to 1000 nM | 1000 to 10000 nM | –
O=C(Cn1cc(Nc2ncc(F)c(NCc3c(F)cc(F)cc3F)n2)cn1)NCC(F)(F)F [Example I-252] | 10 to 100 nM | > 10000 nM | –
OCCn1cc(Nc2ncc(Cl)c(NCc3cccc(OC(F)F)c3)n2)cn1 [Example I-322] | 10 to 100 nM | 1000 to 10000 nM | –
CS(=O)(=O)c1ccccc1CNc1nc(Nc2cnn(CC3CC3)c2)ncc1Cl [Example I-476] | 1000 to 10000 nM | 1000 to 10000 nM | –
OCCn1cc(Nc2ncc(F)c(NCc3c(F)cc(F)cc3F)n2)cn1 [Example I-17] | 10 to 100 nM | 1000 to 10000 nM | –
O=C(Cn1cc(Nc2nccc(NCc3c(F)cccc3Cl)n2)cn1)NCCF [Example I-140] | 10 to 100 nM | 1000 to 10000 nM | –
Cc1cnc(Nc2cnn(CC(F)(F)F)c2)nc1NCc1cc(F)ccc1F [Example I-353] | 100 to 1000 nM | 1000 to 10000 nM | –
CN(C)C(=O)Cn1cc(Nc2ncc(F)c(NCc3c(Cl)cccc3Cl)n2)cn1 [Example I-251] | 10 to 100 nM | 1000 to 10000 nM | –
